Values of other authors in patent US10736322B2, “Aqueous concentrated herbicidal compositions containing glyphosate salts and dicamba salts” (priority 2012, dated 2020).

Settings: 25° C.

Which solubility in water does the source give for O=C(O)CNCP(=O)(O)O [Glyphosate acid, N-(phosphonomethyl)glycine] here?
Its solubility in water is 1.16 wt. %.
